Data reported in patent publication US20230116602A1, “MCL1 INHIBITORS AND USES THEREOF” (California Institute of Technology, priority 2019, published 2023).
Like-named read-outs stand apart in the source and are kept apart here.

Key:
[1] = test system: drug-resistant cell lines of Table 3; assay: Cell line growth retardation assay, resistant cohort; assay type: cell-based, Human; details: arithmetic mean of IC50s over the resistant cohort of Table 3, 6 days growth, read-out: AvgRes IC50
How it was run: (§1)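 Cell lines classed as MCL1-inhibition sensitive or resistant were seeded, rested 24 h, then exposed to 10–0.0032 μM compound for 6 days. Cells were counted by imaging; growth inhibition was the ratio of population doublings with vs without compound from a pre-treatment baseline. IC50 from curve fits, averaged per cohort.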

MCL1 = MCL1 (Homo sapiens, UniProt Q07820); assay: MCL1 affinity assay (competition binding, qPCR readout); details: recombinant MCL1, 11-point 3-fold dilution series
MCL1, sequence (Q07820 whole entry): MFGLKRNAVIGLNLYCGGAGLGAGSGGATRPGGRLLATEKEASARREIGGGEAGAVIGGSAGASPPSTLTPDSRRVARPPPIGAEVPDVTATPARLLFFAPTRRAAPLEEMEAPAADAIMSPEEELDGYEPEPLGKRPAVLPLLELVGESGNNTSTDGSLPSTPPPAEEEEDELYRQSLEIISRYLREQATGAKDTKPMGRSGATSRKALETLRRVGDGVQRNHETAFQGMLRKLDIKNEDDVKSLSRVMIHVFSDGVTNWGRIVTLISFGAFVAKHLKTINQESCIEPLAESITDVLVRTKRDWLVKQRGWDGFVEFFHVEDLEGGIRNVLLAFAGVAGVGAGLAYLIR
How it was run: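 Competition binding: DNA-tagged recombinant protein (E. coli BL21-derived or HEK-293), biotinylated peptide ligand-loaded streptavidin beads and compound incubated 1 hour at room temperature, 0.9% DMSO final. Bound protein eluted with 0.5 μM non-biotinylated ligand and quantified by qPCR; Kd from 11-point 3-fold dilution series.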

BCL2 = BCL2 (Homo sapiens, UniProt P10415); assay: BCL2 affinity assay (competition binding, qPCR readout); details: recombinant BCL2, 11-point 3-fold dilution series
BCL2, sequence (P10415 whole entry): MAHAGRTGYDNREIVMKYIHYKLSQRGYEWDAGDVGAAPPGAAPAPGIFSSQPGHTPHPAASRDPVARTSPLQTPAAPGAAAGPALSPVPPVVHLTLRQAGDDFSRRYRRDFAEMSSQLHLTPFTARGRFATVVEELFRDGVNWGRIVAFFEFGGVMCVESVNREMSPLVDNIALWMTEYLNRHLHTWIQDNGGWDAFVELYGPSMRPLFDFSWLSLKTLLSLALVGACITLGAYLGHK
Experimental: (§2) Recombinant MCL1, BCL2 and BCXL proteins were prepared in either an E. coli host derived from the BL21 strain or in HEK-293 cells. The recombinant proteins were subsequently tagged with DNA for qPCR detection. Streptavidin-coated magnetic beads were treated for 30 minutes at room temperature with the respective biotinylated peptide ligands for each recombinant protein to generate affinity resins for the assays. The liganded beads were blocked with excess biotin and washed with blocking buffer (SeaBlock (Pierce), 1% BSA, 0.05% Tween 20, 1 mM DTT) to remove unbound ligand and to reduce nonspecific binding. Binding reactions were assembled by combining recombinant protein, liganded affinity beads, and test compounds in 1× binding buffer (20% SeaBlock, 0.17×PBS, 0.05% Tween 20, 6 mM DTT). Test compounds were prepared as 111X stocks in 100% DMSO. The compounds were then diluted directly into the assays such that the final concentration of DMSO was 0.9%. The assay plates were incubated at room temperature with shaking for 1 hour and the affinity beads were washed with wash buffer (1×PBS, 0.05% Tween 20). The beads were then re-suspended in elution buffer (1×PBS, 0.05% Tween 20, 0.5 μM non-biotinylated affinity ligand) and incubated at room temperature with shaking for 30 minutes. The recombinant protein concentration in the eluates was measured by qPCR. Kds were determined using an 11-point 3-fold compound dilution series with three DMSO control points.

BCLXL = BCLXL (Homo sapiens, UniProt Q07817); assay: BCLXL affinity assay (competition binding, qPCR readout); details: recombinant BCLXL, 11-point 3-fold dilution series
BCLXL, sequence (Q07817 whole entry): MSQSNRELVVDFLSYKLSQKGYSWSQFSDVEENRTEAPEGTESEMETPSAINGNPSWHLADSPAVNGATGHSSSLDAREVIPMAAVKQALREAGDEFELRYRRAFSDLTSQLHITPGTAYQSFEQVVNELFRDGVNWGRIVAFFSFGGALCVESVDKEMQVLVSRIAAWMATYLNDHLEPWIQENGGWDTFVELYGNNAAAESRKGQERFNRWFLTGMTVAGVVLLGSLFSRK
Experimental: as §2

[2] = test system: drug-sensitive cell lines of Table 3; assay: Cell line growth retardation assay, sensitive cohort; assay type: cell-based, Human; details: for IC50: arithmetic mean of IC50s over the sensitive cohort of Table 3, 6 days growth, read-out: AvgSen IC50; for Fold Diff: average IC50 of resistant cohort divided by average IC50 of sensitive cohort
How it was run: as §1

SMILES	Kd (MCL1)	Kd (BCL2)	Kd (BCLXL)	IC50 ([1]; Homo sapiens, 144 h)	IC50 ([2]; Homo sapiens, 144 h)	Fold Diff [2]	IC50 [2]	IC50 [1]
Cc1c(-c2c(-c3cccc4c3ccn4C)ncc3snc(O[C@H](Cc4ccccc4OCc4ccnn4CC(F)(F)F)C(=O)O)c23)ccc(OCCN2CCN(C)CC2)c1Cl (atropisomer, axis not shown) [Compound 15]	501 to 1500 nM	501 to 1500 nM	> 1500 nM	> 5 µM	> 5 µM	− (“−” represents a fold difference less than 10)	–	–
Cc1c(-c2c(-c3cccc4[nH]c(C(F)(F)F)cc34)ncc3snc(O[C@H](Cc4ccccc4OCc4ccnn4CC(F)(F)F)C(=O)O)c23)ccc(OCCN2CCN(C)CC2)c1Cl (atropisomer, axis not shown) [Compound 16]	> 1500 nM	> 1500 nM	> 1500 nM	> 5 µM	> 5 µM	− (“−” represents a fold difference less than 10)	–	–
Cc1c(-c2c(-c3cccc(C(F)(F)F)c3)ncc3snc(O[C@H](Cc4ccccc4OCc4ccnn4CC(F)(F)F)C(=O)O)c23)ccc(OCCN2CCN(C)CC2)c1Cl (atropisomer, axis not shown) [Compound 22]	501 to 1500 nM	> 1500 nM	> 1500 nM	> 5 µM	1 to 5 µM	− (“−” represents a fold difference less than 10)	–	–
Cc1c(-c2c(-c3ccc(F)s3)ncc3snc(O[C@H](Cc4ccccc4OCc4ccnn4CC(F)(F)F)C(=O)O)c23)ccc(OCCN2CCN(C)CC2)c1Cl (single isomer, unassigned) [Compound 1]	> 1500 nM	> 1500 nM	> 1500 nM	> 5 µM	–	− (“−” represents a fold difference less than 10)	> 5 µM	–
COc1cccc(-c2ncc3snc(O[C@H](Cc4ccccc4OCc4ccnc(-c5ccccc5OC)n4)C(=O)O)c3c2-c2ccc(OCCN3CCOCC3)c(Cl)c2C)c1 (single isomer, unassigned) [Compound 42]	≤ 100 nM	> 1500 nM	> 1500 nM	> 5 µM	1 to 5 µM	− (“−” represents a fold difference less than 10)	–	–
Cc1c(-c2c(Cl)ncc3snc(O[C@H](Cc4ccccc4OCc4ccnn4CC(F)(F)F)C(=O)O)c23)ccc(OCCN2CCN(C)CC2)c1Cl (single isomer, unassigned) [Compound 4]	501 to 1500 nM	> 1500 nM	> 1500 nM	–	–	− (“−” represents a fold difference less than 10)	> 5 µM	> 5 µM
Cc1c(-c2c(-c3cn(C)c4ccccc34)ncc3snc(O[C@H](Cc4ccccc4OCc4ccnn4CC(F)(F)F)C(=O)O)c23)ccc(OCCN2CCN(C)CC2)c1Cl (atropisomer, axis not shown) [Compound 20]	501 to 1500 nM	> 1500 nM	> 1500 nM	> 5 µM	> 5 µM	− (“−” represents a fold difference less than 10)	–	–
Cc1c(-c2c(-c3cccc(F)c3)ncc3snc(O[C@H](Cc4ccccc4)C(=O)O)c23)ccc(OCCN2CCN(C)CC2)c1Cl (atropisomer, axis not shown) [Compound 92]	501 to 1500 nM	> 1500 nM	> 1500 nM	> 5 µM	1 to 5 µM	− (“−” represents a fold difference less than 10)	–	–
Cc1c(-c2c(Cl)ncc3snc(O[C@H](Cc4ccccc4OCc4ccnn4CC(F)(F)F)C(=O)O)c23)ccc(OCCN2CCN(C)CC2)c1Cl (single isomer, unassigned) [Compound 3]	> 1500 nM	> 1500 nM	> 1500 nM	> 5 µM	> 5 µM	− (“−” represents a fold difference less than 10)	–	–
Cc1c(-c2c(-c3ccc4c(ccn4C)c3)ncc3snc(O[C@H](Cc4ccccc4OCc4ccnn4CC(F)(F)F)C(=O)O)c23)ccc(OCCN2CCN(C)CC2)c1Cl (atropisomer, axis not shown) [Compound 10]	> 1500 nM	> 1500 nM	> 1500 nM	> 5 µM	> 5 µM	− (“−” represents a fold difference less than 10)	–	–
Cc1c(-c2c(-c3ccc(F)s3)ncc3snc(O[C@H](Cc4ccccc4OCc4ccnn4CC(F)(F)F)C(=O)O)c23)ccc(OCCN2CCN(C)CC2)c1Cl (single isomer, unassigned) [Compound 2]	501 to 1500 nM	> 1500 nM	> 1500 nM	–	–	− (“−” represents a fold difference less than 10)	1 to 5 µM	> 5 µM

Further lines, with some results ahead:

Kd (MCL1)	Kd (BCL2)	Kd (BCLXL)	SMILES	IC50 ([1]; Homo sapiens, 144 h)	IC50 ([2]; Homo sapiens, 144 h)	Fold Diff [2]	IC50 [2]	IC50 [1]
≤ 100 nM	> 1500 nM	> 1500 nM	COc1cccc(-c2ncc3snc(O[C@H](Cc4ccccc4OCc4ccnc(-c5ccccc5OC)n4)C(=O)O)c3c2-c2ccc(OC)c(Cl)c2C)c1 (atropisomer, axis not shown) [Compound 51]	> 5 µM	1 to 5 µM	− (“−” represents a fold difference less than 10)	–	–
101 to 500 nM	> 1500 nM	> 1500 nM	Cc1c(-c2c(-c3ccsc3)ncc3snc(O[C@H](Cc4ccccc4OCc4ccnn4CC(F)(F)F)C(=O)O)c23)ccc(OCCN2CCN(C)CC2)c1Cl (atropisomer, axis not shown) [Compound 27]	> 5 µM	1 to 5 µM	− (“−” represents a fold difference less than 10)	–	–
≤ 100 nM	> 1500 nM	> 1500 nM	COc1ccccc1-c1nccc(COc2ccccc2C[C@@H](Oc2nsc3cnc(-c4ccc(F)cc4)c(-c4ccc(OCCN5CCN(C)CC5)c(Cl)c4C)c23)C(=O)O)n1 [Compound 40]	> 5 µM	≤ 1 µM	+ (“+” represents a fold difference of 10 or more)	–	–
101 to 500 nM	> 1500 nM	> 1500 nM	Cc1c(-c2c(-c3ccc(F)cc3)ncc3snc(O[C@H](Cc4ccccc4OCc4ccnn4CC(F)(F)F)C(=O)O)c23)ccc(OCCN2CCN(C)CC2)c1Cl (single isomer, unassigned) [Compound 6]	> 5 µM	–	− (“−” represents a fold difference less than 10)	1 to 5 µM	–
≤ 100 nM	> 1500 nM	> 1500 nM	COc1cccc(-c2ncc3snc(O[C@H](Cc4ccccc4OCc4ccnc(-c5ccccc5OC)n4)C(=O)O)c3c2-c2ccc(OCCCN(C)C)c(Cl)c2C)c1 (atropisomer, axis not shown) [Compound 47]	> 5 µM	≤ 1 µM	+ (“+” represents a fold difference of 10 or more)	–	–
≤ 100 nM	> 1500 nM	> 1500 nM	COCCOc1ccc(-c2c(-c3cccc(OC)c3)ncc3snc(O[C@H](Cc4ccccc4OCc4ccnc(-c5ccccc5OC)n4)C(=O)O)c23)c(C)c1Cl (atropisomer, axis not shown) [Compound 44]	> 5 µM	> 5 µM	− (“−” represents a fold difference less than 10)	–	–
101 to 500 nM	> 1500 nM	> 1500 nM	COc1cc(-c2nccc(COc3ccccc3C[C@@H](Oc3nsc4cnc(-c5cccc(F)c5)c(-c5ccc(OCCN6CCN(C)CC6)c(Cl)c5C)c34)C(=O)O)n2)ccn1 (atropisomer, axis not shown) [Compound 71]	> 5 µM	≤ 1 µM	+ (“+” represents a fold difference of 10 or more)	–	–
≤ 100 nM	> 1500 nM	> 1500 nM	Cc1c(-c2c(C3CCC3)ncc3snc(O[C@H](Cc4ccccc4OCc4ccnn4CC(F)(F)F)C(=O)O)c23)ccc(OCCN2CCN(C)CC2)c1Cl (atropisomer, axis not shown) [Compound 29]	> 5 µM	≤ 1 µM	+ (“+” represents a fold difference of 10 or more)	–	–
≤ 100 nM	> 1500 nM	> 1500 nM	COc1cccc(-c2ncc3snc(O[C@H](Cc4ccccc4OCc4ccnc(-c5ccccc5OC)n4)C(=O)O)c3c2-c2ccc(O)c(Cl)c2C)c1 (atropisomer, axis not shown) [Compound 41]	> 5 µM	1 to 5 µM	− (“−” represents a fold difference less than 10)	–	–
